In ChEMBL document CHEMBL1201862, “PubChem BioAssay data set” (2004):
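Values below derive from 48-hour exposures of cells grown in 96-well plates, with endpoints linearly interpolated between the two concentrations bracketing the appropriate inhibition level. GI50 is the concentration that inhibits growth by half.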 Active and inactive are the calls of the source. Rule as the data show it: active = GI50 up to about 1.1 µM and inactive = higher.

Key:
Test in all cases: NCI anticancer screen, dose series, 48 h
M14 = test system: M14
UACC-62 = test system: UACC-62
SK-OV-3 = test system: SK-OV-3
SF-539 = test system: SF-539
SK-MEL-5 = test system: SK-MEL-5
OVCAR-5 = test system: OVCAR-5
NCI-H23 = test system: NCI-H23
LOX IMVI = test system: LOX IMVI
HT-29 = test system: HT-29
MDA-N = test system: MDA-N
Malme-3M = test system: Malme-3M
BT-549 = test system: BT-549
HCT-15 = test system: HCT-15
EKVX = test system: EKVX
NCI-H460 = test system: NCI-H460
UO-31 = test system: UO-31
U-251 = test system: U-251
SR = test system: SR
SF-295 = test system: SF-295
HCT-116 = test system: HCT-116
RPMI-8226 = test system: RPMI-8226
T47D = test system: T47D
Hs-578T = test system: Hs-578T
K562 = test system: K562
TK-10 = test system: TK-10
MOLT-4 = test system: MOLT-4
CCRF-CEM = test system: CCRF-CEM
MCF7 = test system: MCF7
SK-MEL-28 = test system: SK-MEL-28
HOP-92 = test system: HOP-92
CAKI-1 = test system: CAKI-1
OVCAR-4 = test system: OVCAR-4
NCI/ADR-RES = test system: NCI/ADR-RES
KM12 = test system: KM12
MDA-MB-231 = test system: MDA-MB-231
SW-620 = test system: SW-620
UACC-257 = test system: UACC-257
HCC 2998 = test system: HCC 2998
786-0 = test system: 786-0
A549 = test system: A549
ACHN = test system: ACHN
MDA-MB-435 = test system: MDA-MB-435
SN12C = test system: SN12C
NCI-H226 = test system: NCI-H226
IGROV-1 = test system: IGROV-1
DU-145 = test system: DU-145
HL-60 = test system: HL-60
RXF 393 = test system: RXF 393
SNB-75 = test system: SNB-75
OVCAR-3 = test system: OVCAR-3
OVCAR-8 = test system: OVCAR-8
NCI-H522 = test system: NCI-H522
A498 = test system: A498
HOP-62 = test system: HOP-62
SK-MEL-2 = test system: SK-MEL-2
PC-3 = test system: PC-3
COLO 205 = test system: COLO 205
SF-268 = test system: SF-268
SNB-19 = test system: SNB-19

`O=S(=O)(CC(Cl)c1ccccc1)c1nc2ccccc2s1` (centres undefined) was tested, and the GI50 (M14) was 2.29 µM (inactive), the GI50 (UACC-62) was 15.1 µM (inactive) and the GI50 (SK-OV-3) was 18.7 µM (inactive). For the same compound, the GI50 (SF-539) was 10.2 µM (inactive), the GI50 (SK-MEL-5) was 4.01 µM (inactive) and the GI50 (OVCAR-5) was 13.7 µM (inactive). For the same compound, the GI50 (NCI-H23) was 8.38 µM (inactive), the GI50 (LOX IMVI) was 1.5 µM (inactive) and the GI50 (HT-29) was 5.42 µM (inactive). For the same compound, the GI50 (MDA-N) was 6.22 µM (inactive), the GI50 (Malme-3M) was 9.16 µM (inactive) and the GI50 (BT-549) was 2.98 µM (inactive). The GI50 (HCT-15) was 8.02 µM, the GI50 (EKVX) was 15.8 µM (inactive) and the GI50 (NCI-H460) was 19.7 µM (inactive). The GI50 (UO-31) was 15.4 µM (inactive), the GI50 (U-251) was 12.5 µM (inactive) and the GI50 (SR) was 1.67 µM (inactive). For the same compound, the GI50 (SF-295) was 17.9 µM (inactive), the GI50 (HCT-116) was 9.86 µM (inactive) and the GI50 (RPMI-8226) was 3.35 µM (inactive). For the same compound, the GI50 (T47D) was 13.2 µM (inactive), the GI50 (Hs-578T) was 27.6 µM (inactive) and the GI50 (K562) was 2.81 µM (inactive). For the same compound, the GI50 (TK-10) was 19.5 µM (inactive), the GI50 (MOLT-4) was 2.81 µM (inactive) and the GI50 (CCRF-CEM) was 1.7 µM (inactive). For the same compound, the GI50 (MCF7) was 7.48 µM (inactive), the GI50 (SK-MEL-28) was 15.7 µM (inactive) and the GI50 (HOP-92) was 2.88 µM (inactive). For the same compound, the GI50 (CAKI-1) was 2.24 µM (inactive), the GI50 (OVCAR-4) was 19.8 µM (inactive) and the GI50 (NCI/ADR-RES) was 10.7 µM (inactive). The GI50 (KM12) was 17.2 µM (inactive), the GI50 (MDA-MB-231) was 14.1 µM (inactive) and the GI50 (SW-620) was 5.2 µM (inactive). For the same compound, the GI50 (UACC-257) was 7.8 µM (inactive), the GI50 (HCC 2998) was 17.5 µM (inactive) and the GI50 (786-0) was 6.95 µM (inactive). The GI50 (A549) was 19.5 µM (inactive), the GI50 (ACHN) was 15.5 µM (inactive) and the GI50 (MDA-MB-435) was 7.71 µM (inactive). For the same compound, the GI50 (SN12C) was 10.2 µM (inactive), the GI50 (NCI-H226) was 8.11 µM (inactive) and the GI50 (IGROV-1) was 9.12 µM (inactive). The GI50 (DU-145) was 16.5 µM (inactive), the GI50 (HL-60) was 2.11 µM (inactive) and the GI50 (RXF 393) was 15 µM (inactive). For the same compound, the GI50 (SNB-75) was 14.5 µM (inactive), the GI50 (OVCAR-3) was 8.53 µM (inactive) and the GI50 (OVCAR-8) was 7.96 µM (inactive). For the same compound, the GI50 (NCI-H522) was 1.85 µM (inactive), the GI50 (A498) was 20 µM (inactive) and the GI50 (HOP-62) was 23.1 µM (inactive). The GI50 (SK-MEL-2) was 17.8 µM (inactive), the GI50 (PC-3) was 16 µM (inactive) and the GI50 (COLO 205) was 7.93 µM (inactive). For the same compound, the GI50 (SF-268) was 13.6 µM (inactive) and the GI50 (SNB-19) was 17.8 µM (inactive).
